Earlier results on one compound are cited in patent US7342124B2, “Synthetic techniques and intermediates for polyhydroxy dienyl lactones and mimics thereof” (The Trustees Of The University Of Pennsylvania, priority 2003, dated 2008).

Each structure is given as a SMILES string.

Data set [1] concerns cell development (M phase). The conditions noted are these: by binding and stabilizing mitotic spindle microtubules.
Data set [2] relates to mitotic spindle microtubules. The conditions noted are these: compared with taxol.
In the next data set the test system is murine splenocytes. The conditions noted are these: in vitro.
Data set [3] deals with two-way mixed-lymphocyte reaction. The conditions noted are these: in vitro.
For data set [4], the system named is graft-vs.-host splenomegaly response. Conditions: induced by injection of parental splenocytes into F1 recipient mice.

In the case of `C=C/C=C\[C@H](C)[C@H](OC(N)=O)[C@@H](C)[C@H](O)[C@@H](C)C/C(C)=C\[C@H](C)[C@@H](O)[C@@H](C)/C=C\[C@@H](O)C[C@@H]1OC(=O)[C@H](C)[C@@H](O)[C@H]1C` [(+)-discodermolide], the cell cycle arrest result in data set [1] was “arrests cell development at the M phase”. In data set [2], the “microtubule binding affinity relative to taxol” value was “much higher”. Besides, the associated cytotoxicity result with murine splenocytes (at suppression of mixed-lymphocyte reaction and concanavalin A-induced mitogenesis) is “no associated cytotoxicity”. For the same compound, the “suppression of concanavalin A-induced mitogenesis” value with murine splenocytes (murine splenocytes) is “suppresses”. Besides, in data set [3], the “suppression of two-way mixed-lymphocyte reaction” value is listed as “suppresses”. The “suppression of graft-vs.-host splenomegaly response, relative potency” value in data set [4] was “potency intermediate between those of cyclosporin A and FK506”.
